Experimental data taken from the NIST ThermoML archive (doi:10.1021/je900327x).
Numbers after ± are expanded uncertainties.

Tests used:
[1] = refractive index (Na D-line) (dimensionless); conditions: 298.15 K; 101.33 kPa; Liquid; Standard Abbe refractometry
[2] = 298.15 K; 101.33 kPa; Liquid; Vibrating tube method

## CC(C)CC(C)(C)C [2,2,4-trimethylpentane]
[1]
  refractive index: 1.38887 ± 0.00068
[2]
  mass density: 687.73 ± 0.21 kg/m3

## C1COCO1 [1,3-dioxolane]
[1]
  refractive index: 1.39779 ± 0.00068
[2]
  mass density: 1058.87 ± 0.15 kg/m3

## CC(C)O [propan-2-ol]
[1]
  refractive index: 1.37509 ± 0.00068
[2]
  mass density: 781.01 ± 0.2 kg/m3
